Measurements as given in patent US9416141B2 (University of Washington through its Center for …, priority 2012, dated 2016).
Counter-ions that a name gives are not always drawn.

Tested on: hair cells
Experiment: Hair cell toxicity assay in zebrafish (neomycin-induced hair cell death, DASPEI staining of neuromasts)
Type: in vivo
Settings: Danio rerio; for Emax at 25 µM: maximum observed @ 25 μM test compound; for Emax at 25 µM / Emax at 8.3 µM / Emax at 2.8 µM: 200 micromolar neomycin, read-out: Max HC Protection (HCmax, % hair cell survival); for EC50: zebrafish larvae 5-7 dpf, 1 h pre-treatment, then 200 micromolar neomycin + test compound 30 min, read-out: HC50 (concentration that would produce 50% hair cell survival); for Emax at 8.3 µM: maximum observed @ 8.3 μM test compound; for Emax at 2.8 µM: maximum observed @ 2.8 μM test compound
Procedure: Zebrafish are bred and newly fertilized embryos are collected the week prior and raised at 28.5° C. in petri dishes containing embryo medium. Newly hatched free-swimming larvae are fed paramecium and dry fish food at 4 days post fertilization (dpf) with lights on. For treatment, fish 5-7 dpf are transferred to cell culture baskets and place within a well of a 6-well plate containing 7 milliliters of 1× embryo medium. Typically, tests are done with ten fish per basket but work well with up to 50 fish. All treatment and wash volumes are 7 milliliters. • 1. Fish are pre-treated with test compound for 1 hour. […] Treat with 200 micromolar neomycin (neomycin sulfate, Sigma, St. Louis, Mo., catalog #N1142)+test compound for 30 minutes. • 3. Rinse fish briefly 4 times in embryo medium and add 700 μl of 0.05% DASPEI (2-{4-(dimethylamino)styryl}-N-ethylpyridinium iodide, Molecular Probes, Eugene, Oreg.) and allowed to stain for 15 minutes. • 4. Rinse twice in embryo medium and add 350 μl MS222 (0.55 ug/ml final concentration, 3-aminobenzoic acid ethyl ester, methansulfoneate salt, Sigma, St. Louis, Mo.) to anesthetize. • 5. View with epifluorescence dissecting microscope equipped with a DAPSEI filter set (excitation […], Chroma Technologies, Brattleboro, Vt.). For assessment of initial dose response curves, fish are transferred to wide depression slide with wide-bore pipette. The DASPEI staining of ten neuromasts (SO1, SO2, IO1, IO2, IO3, IO4, M2, MI1, MI2 and O2) on one side of an animal are evaluated. Each neuromast is scored for presence of DASPEI staining (score=2), reduced DASPEI staining (score=1) or absence of DASPEI staining (score=0). Total scores for an animal are tabulated, to give a composite score that can range from 0 to 20. Average scores and standard deviations are calculated for animals in each treatment group. Scores are normalized to control group (vehicle only, no drug, no neomycin) and expressed as % hair cell survival. HCmax is the maximum protection (hair cell survival) observed. • 6. If at least 50% hair cells survive, the HC50 (concentration that would produce 50% hair cell survival) is calculated as a linear extrapolation from the nearest concentrations of protective drug that produce hair cell survival below and above 50%. If less than 50% hair cells survive, the HC50 is not determined. 1× embryo media (standard lab EM): • 1 mM MgSO4, • 0.15 mM KH2PO4, • 0.05 mM Na2HPO4, • 1 mM CaCl2, • 0.5 mM KCl • 15 mM NaCl • 0.7 mM NaHCO3

SMILES	Emax at 25 µM	EC50	Emax at 8.3 µM	Emax at 2.8 µM
NC(=O)c1c(NC(=O)Nc2ccc(Cl)cc2)sc2c1CCN(CCCNC(=O)CCc1cccnc1)C2 [Example 211, 2-{[(4-chlorophenyl)carbamoyl]amino}-6-{3-[3-(pyridin-3-yl)propanamido]propyl}-4H,5H,6H,7H-thieno[2,3-c]pyridine-3-carboxamide]	95%	< 1000 nM	–	–
CC(C)(C)OC(=O)CCN1CCc2c(sc(NC(=O)Nc3ccc(Cl)cc3)c2C(N)=O)C1 [Example 51, tert-Butyl 3-{3-Carbamoyl-2-[3-(4-chlorophenyl)ureido]-4,5-dihydrothieno[2,3-c]pyridin-6(7H)-yl}propanoate]	–	1000 to 10000 nM	55%	–
NC(=O)c1c(NC(=O)Nc2ccc(Cl)cc2)sc2c1CCN(C1CCNC1)C2 (racemic) [Example 7, (+/−)-2-[3-(4-Chlorophenyl)ureido]-6-(pyrrolidin-3-yl)-4,5,6,7-tetrahydrothieno[2,3-c]pyridine-3-carboxamide dihydrochloride]	78%	1000 to 10000 nM	–	–
CC(C)(C)OC(=O)CCCCCN1CCc2c(sc(NC(=O)Nc3ccc(Cl)cc3)c2C(N)=O)C1 [Example 18, tert-Butyl 6-{3-carbamoyl-2-[3-(4-chlorophenyl)ureido]-4,5-dihydrothieno[2,3-c]pyridin-6(7H)-yl}hexanoate]	–	< 1000 nM	–	64%
CC(C)(C)OC(=O)CCCCN1CCc2c(sc(NC(=O)Nc3ccc(Cl)cc3)c2C(N)=O)C1 [Example 19, tert-Butyl 5-{3-carbamoyl-2-[3-(4-chlorophenyl)ureido]-4,5-dihydrothieno[2,3-c]pyridin-6(7H)-yl}pentanoate]	–	< 1000 nM	68%	–
NCCN1CCc2c(sc(NC(=O)Nc3ccc(Cl)cc3)c2C(N)=O)C1 [Example 11, 6-(2-Aminoethyl)-2-[3-(4-chlorophenyl)ureido]-4,5,6,7-tetrahydrothieno[2,3-c]pyridine-3-carboxamide dihydrochloride]	68%	1000 to 10000 nM	–	–
NC(=O)c1c(NC(=O)Nc2ccc(Cl)cc2)sc2c1CCN(CCCNC(=O)CCc1ccc(C(F)(F)F)cc1)C2 [Example 218, 2-{[(4-chlorophenyl)carbamoyl]amino}-6-(3-{3-[4-(trifluoromethyl)phenyl]propanamido}propyl)-4H,5H,6H,7H-thieno[2,3-c]pyridine-3-carboxamide]	–	< 1000 nM	–	103%
NC(=O)c1c(NC(=O)Nc2ccc(Cl)cc2)sc2c1CC[N+]1(CCCC1)C2 [Example 138, 3′-Carbamoyl-2′-[3-(4-chlorophenyl)ureido]-5′,7′-dihydro-4′H-spiro[pyrrolidine-1,6′-thieno[2,3-c]pyridin]-1-ium bromide]	94%	< 1000 nM	–	–
CCN1CCc2c(sc(NC(=O)Nc3ccc(C(=O)OC(C)(C)C)cc3)c2C(N)=O)C1 [Example 29, tert-Butyl 4-[3-(3-carbamoyl-6-ethyl-4,5,6,7-tetrahydrothieno[2,3-c]pyridin-2-yl)ureido]benzoate]	75%	1000 to 10000 nM	–	–
CCN1CCc2sc(NC(=O)Nc3ccc(Cl)cc3)c(C(N)=O)c2CC1 [Example 115, 2-[3-(4-Chlorophenyl)ureido]-6-ethyl-5,6,7,8-tetrahydro-4H-thieno[2,3-d]azepine-3-carboxamide hydrochloride]	99%	1000 to 10000 nM	–	–
NC(=O)c1c(NC(=O)Nc2ccc(Cl)cc2)sc2c1CCN(CCN1CCCCC1)C2 [Example 44, 2-[3-(4-chlorophenyl)ureido]-6-[2-(piperidin-1-yl)ethyl]-4,5,6,7-tetrahydrothieno[2,3-c]pyridine-3-carboxamide ditrifluoroacetate]	98%	1000 to 10000 nM	–	–
CCN1CCc2c(sc(NC(=O)Nc3ccc(Br)cc3)c2C(N)=O)C1 [Example 222, 2-{[(4-bromophenyl)carbamoyl]amino}-6-ethyl-4H,5H,6H,7H-thieno[2,3-c]pyridine-3-carboxamide]	90%	1000 to 10000 nM	–	–
